Source: patent US4620871A (priority 1980, dated 1986)

How the values were obtained:
Bean [1] = assay: Stimulation of photosynthesis, 14CO2 incorporation, bean leaf discs (Example 20); conditions: foliar, 2 hours
Protocol: The specific radioactivities of the stock solutions were determined by liquid scintillation. In the control test untreated leaf discs were exposed to labelled carbon, dioxide, and the amount of carbon dioxide incorporated under such conditions was regarded as standard.

Bean [2] = assay: Inhibition of the decomposition of chlorophyll in bean leaf segments; conditions: 4 days dark
Protocol: The active agent to be tested was dissolved in distilled water to form a 200 ppm solution, and leaf segments of the plants under examination, weighing 200 mg, were floated on the surface of the solution for 4 days in the dark. Thereafter chlorphyll was extracted from the leaf segments with methanol.
To determine the starting state, chlorophyll was extracted with methanol from untreated leaf segments weighing 200 mg. In the control test the leaf segments, weighing 200 mg, were floated on the surface of distilled water for 4 days in the dark, and then chlorophyll was extracted from the leaf segments with methanol.
The chlorophyll concentration was determined by measuring the extinction of the extracts at 665 mμ.

Alfalfa = Alfalfa field tests 1979, Boly (Example 26); type: in vivo
Source text: The effects of the compositions according to the invention exerted on the crop yield (green yield), crude protein content, protein nitrogen content and C/N ratio of alfalfa, observed under field conditions in the tests performed in 1979 at the Agricultural Combinate of Boly, Hungary, are listed in Table 17.

N=C(N)N.N=C(N)N.Oc1nnc(O)c2ccccc12 [1,4-dihydroxyphthalazine diguanidine salt] was tested, and the activation at 200 ppm (Bean [1]) was 4%, the Chlorophyll (Bean [2]; 200 ppm, control 4.2) was 6.5 mg and the activation at 200 ppm (Bean [2]; foliar, 96 h, read-out: Promotion) was 54%. The P2O5 content (Alfalfa; control 8.3) was 10.3 % of dry substance, the Crude protein content (Alfalfa; control 21.3) was 25.4 % of dry substance and the Green yield (Alfalfa; control 120) was 146 q/ha. For the same compound, the “Crude protein content, increase” value (Alfalfa; in vivo) was 19.4%, the “Green yield, increase” value (Alfalfa; in vivo) was 22.3% and the “P2O5 content, increase” value (Alfalfa; in vivo) was 24.6%.
